From DBAASP
≈ marks a conversion by molar mass, not a printed value. Where “and” joins values, the source holds several entries; their conditions need not be identical. Equal values may be shown once. Each block holds one molecule with its values, some of them ahead of it.

Assays:
Experiment in all cases: ≥ marks a high value that may be exact or a test limit, other limits are often not marked, values filed in µg/mL are converted to µM
[1] = system: Saccharomyces cerevisiae
[2] = system: Aspergillus flavus
[3] = system: Bacillus megaterium
[4] = system: Escherichia coli ATCC 25922
[5] = system: Staphylococcus aureus ATCC 25923
[6] = system: Enterococcus faecalis ATCC 29212
[7] = system: Candida albicans ATCC 90028
[8] = system: Candida parapsilosis ATCC 22019
[9] = system: Pseudomonas aeruginosa ATCC 27853
[10] = system: Escherichia coli ATCC 35218
[11] = system: Psychrobacter faecalis X29
[12] = system: Bacillus licheniformis X39
[13] = system: Serratia rubidaea X01
[14] = system: Staphylococcus carnosus KHS
[15] = system: Rhodococcus rhodochrous X15
[16] = system: Enterococcus faecalis 981
[17] = system: Klebsiella pneumoniae ATCC 700603
[18] = system: Acinetobacter baumannii I NM8
[19] = system: Escherichia coli ATCC 25726
[20] = system: Klebsiella pneumoniae
[21] = system: Candida albicans ATCC 2002
[22] = system: Escherichia coli K-12
[23] = system: Escherichia coli 218
[24] = system: Escherichia coli 37
[25] = system: Escherichia coli 117
[26] = system: Shigella dysenteriae
[27] = system: Pseudomonas aeruginosa CMCCB 1010
[28] = system: Staphylococcus aureus 37
[29] = system: Staphylococcus aureus USA 300
[30] = system: Pseudomonas aeruginosa
[31] = system: Enterobacter cloacae ATCC 13047
[32] = system: Candida sp.
[33] = system: Vibrio metschnikovii NCTC 8483
[34] = system: Staphylococcus aureus ATCC 25293
[35] = system: Staphylococcus epidermidis ATCC 12228
[36] = system: Bacillus megaterium ATCC 17749
[37] = system: Salmonella enterica subsp. enterica serovar Newport
[38] = system: Escherichia coli 363 ATCC 11775
[39] = system: Micrococcus luteus ATCC 4698
[40] = system: Vibrio alginolyticus ATCC 17749
[41] = system: Fusarium oxysporum
[42] = system: Staphylococcus aureus ATCC 2592
[43] = system: Helicobacter pylori NCTC 11637

SMILES: CC[C@H](C)[C@H](NC(=O)[C@H](Cc1cnc[nH]1)NC(=O)[C@H](CO)NC(=O)[C@H](CC(C)C)NC(=O)[C@@H](N)Cc1ccccc1)C(=O)N[C@@H](C)C(=O)NCC(=O)N[C@@H](Cc1ccccc1)C(=O)N[C@@H](CC(C)C)C(=O)N[C@@H](CO)C(=O)N[C@@H](CC(N)=O)C(=O)N[C@@H](CC(C)C)C(=O)N[C@@H](Cc1ccccc1)C(=O)O [FLSHIAGFLSNLF]
MIC [1]: 10 µM (≈ 14.7 µg/mL)
MIC [2]: 10 µM (≈ 14.7 µg/mL)
MIC [3]: 4 µM (≈ 5.86 µg/mL)
MIC [4]: 161 µM (≈ 236 µg/mL)
MIC [5]: 10 µM (≈ 14.7 µg/mL)
MIC [6]: > 80 µM
MIC [7]: 20 µM (≈ 29.3 µg/mL)
MIC [8]: 20 µM (≈ 29.3 µg/mL)
MIC [9]: > 161 µM
MIC [10]: ≥ 80 µM

SMILES: CC[C@H](C)[C@H](NC(=O)CNC(=O)[C@H](Cc1ccccc1)NC(=O)[C@H](CCC(=O)O)NC(=O)[C@H](CCCCN)NC(=O)[C@H](CC(C)C)NC(=O)[C@H](CCCCN)NC(=O)[C@H](CC(=O)O)NC(=O)[C@H](CC(C)C)NC(=O)[C@@H](NC(=O)CN)[C@@H](C)CC)C(=O)N[C@@H](CO)C(=O)N[C@@H](C)C(=O)N[C@@H](C)C(=O)N[C@@H](CCCN=C(N)N)C(=O)NCC(=O)N[C@H](C(=O)N[C@@H](C)C(=O)N[C@@H](CCC(N)=O)C(=O)N[C@@H](CO)C(=O)N[C@@H](CC(C)C)C(=O)N[C@@H](CC(C)C)C(=O)N[C@@H](CC(N)=O)C(=O)N[C@H](C(=O)N[C@@H](C)C(=O)N[C@@H](CO)C(=O)N[C@H]1CSSC[C@@H](C(=O)O)NC(=O)[C@H]([C@@H](C)O)NC(=O)[C@H](CCCCN)NC(=O)[C@H](C)NC(=O)[C@H](CC(C)C)NC(=O)[C@H](CCCCN)NC1=O)[C@@H](C)O)C(C)C [GILDKLKEFGISAARGVAQSLLNTASCKLAKTC]
MIC [4]: 150 µM (≈ 511 µg/mL)
MIC [5]: 37.5 µM (≈ 128 µg/mL)
MIC [11]: 2.3 µM (≈ 7.83 µg/mL)
MIC [12]: ≥ 75 µM
MIC [13]: 2.3 µM (≈ 7.83 µg/mL)
MIC [14]: ≥ 37.5 µM
MIC [15]: 2.3 µM (≈ 7.83 µg/mL)
MIC [16]: ≥ 37.5 µM

SMILES: CC[C@H](C)[C@H](NC(=O)[C@@H](NC(=O)[C@H](CO)NC(=O)[C@H](C)NC(=O)[C@H](CC(C)C)NC(=O)CN)[C@@H](C)O)C(=O)NCC(=O)N[C@@H](CO)C(=O)N[C@@H](CC(C)C)C(=O)N[C@@H](CC(C)C)C(=O)NCC(=O)N[C@@H](CCCCN)C(=O)N[C@@H](Cc1ccccc1)C(=O)N[C@@H](C)C(=O)N[C@@H](CCCCN)C(=O)NCC(=O)NCC(=O)N[C@@H](C)C(=O)N[C@@H](CCC(N)=O)C(=O)N[C@@H](C)C(=O)N[C@@H](Cc1ccccc1)C(=O)N[C@@H](CC(C)C)C(=O)N[C@@H](CCC(N)=O)C(=O)N1CCC[C@H]1C(=O)N[C@@H](CCCCN)C(=O)O [GLASTIGSLLGKFAKGGAQAFLQPK]
MIC [5]: 80 µM and 100 µM
MIC [7]: ≥ 50 µM
MIC [17]: > 50 µM
MIC [18]: 25 µM (≈ 61.5 µg/mL)
MIC [19]: ≥ 160 µM

Second part, the molecule after the results:

MIC [4]: 13.5 µM (≈ 20 µg/mL)
MIC [5]: 3.38 µM (≈ 5 µg/mL)
MIC [20]: 6.76 µM (≈ 10 µg/mL)
MIC [6]: 1.69 µM (≈ 2.5 µg/mL)
MIC [21]: 6.76 µM (≈ 10 µg/mL)
MIC [22]: 25 µM (≈ 37 µg/mL)
MIC [23]: 13.5 µM (≈ 20 µg/mL)
MIC [7]: 6.76 µM (≈ 10 µg/mL)
MIC [8]: 27 µM (≈ 40 µg/mL)
MIC [24]: 6.76 µM (≈ 10 µg/mL)
MIC [17]: 6.76 µM (≈ 10 µg/mL)
MIC [9]: 3.38 µM (≈ 5 µg/mL)
MIC [25]: 27 µM (≈ 40 µg/mL)
MIC [26]: 3.38 µM (≈ 5 µg/mL)
MIC [27]: 27 µM (≈ 40 µg/mL)
MIC [28]: 6.76 µM (≈ 10 µg/mL)
MIC [29]: ≥ 100 µM
MIC [30]: 3.38 µM (≈ 5 µg/mL)
MIC [31]: 13.5 µM (≈ 20 µg/mL)
SMILES: CC[C@H](C)[C@H](N)C(=O)N[C@@H](CC(N)=O)C(=O)N[C@@H](CC(C)C)C(=O)N[C@@H](CCCCN)C(=O)N[C@@H](C)C(=O)N[C@H](C(=O)N[C@@H](C)C(=O)N[C@@H](C)C(=O)N[C@@H](CC(C)C)C(=O)N[C@@H](C)C(=O)N[C@@H](CCCCN)C(=O)N[C@@H](CCCCN)C(=O)N[C@@H](CC(C)C)C(=O)N[C@@H](CC(C)C)C(=O)O)[C@@H](C)CC [INLKAIAALAKKLL]

MIC [32]: 8 µM (≈ 16.8 µg/mL)
MIC [33]: ≥ 75 µM
MIC [34]: 17 µM (≈ 35.7 µg/mL)
MIC [35]: 41 µM (≈ 86.2 µg/mL)
MIC [36]: ≥ 34 µM
MIC [37]: ≥ 75 µM
MIC [38]: ≥ 62 µM
MIC [39]: 16 µM (≈ 33.6 µg/mL)
MIC [40]: ≥ 75 µM
MIC [41]: 13 µM (≈ 27.3 µg/mL)
SMILES: CC(C)C[C@@H]1NC(=O)[C@H](CCCN=C(N)N)NC(=O)[C@H](Cc2cnc[nH]2)NC(=O)[C@H](Cc2c[nH]c3ccccc23)NC(=O)CNC(=O)CNC(=O)[C@@H](NC(=O)[C@H](Cc2ccc(O)cc2)NC(=O)CNC(=O)CNC(=O)[C@@H](N)CO)CSSC[C@@H](C(=O)N[C@H](C(=O)N[C@@H](CO)C(=O)N[C@@H](Cc2ccc(O)cc2)C(=O)N[C@@H](CCCN=C(N)N)C(=O)N[C@@H](CO)C(=O)NCC(=O)O)[C@@H](C)O)NC(=O)[C@H](CCCN=C(N)N)NC1=O [SGGYCGGWHRLRCTSYRSG]

MIC [4]: 19.8 µM (≈ 60 µg/mL)
MIC [21]: 9.91 µM (≈ 30 µg/mL)
MIC [42]: 4.95 µM (≈ 15 µg/mL)
MIC [26]: 19.8 µM (≈ 60 µg/mL)
MIC [43]: 9.91 µM (≈ 30 µg/mL)
SMILES: CC[C@H](C)[C@H](NC(=O)[C@H](CCC(N)=O)NC(=O)[C@H](CCCCN)NC(=O)[C@H](Cc1c[nH]c2ccccc12)NC(=O)[C@H](CO)NC(=O)[C@H](CCC(N)=O)NC(=O)[C@@H]1CCCN1C(=O)[C@H](CC(C)C)NC(=O)[C@H](CCCCN)NC(=O)[C@H](C)NC(=O)[C@H](CCC(=O)O)NC(=O)[C@H](CCCCN)NC(=O)[C@@H](NC(=O)[C@H](CCSC)NC(=O)[C@@H](NC(=O)[C@@H](NC(=O)[C@@H](NC(=O)[C@@H](N)CO)[C@@H](C)CC)[C@@H](C)CC)[C@@H](C)O)[C@@H](C)O)C(=O)N[C@@H](C)C(=O)N[C@H]1CSSC[C@@H](C(=O)O)NC(=O)[C@H]([C@@H](C)O)NC(=O)[C@H](CC(N)=O)NC(=O)[C@H](Cc2ccc(O)cc2)NC(=O)[C@H](CC(C)C)NC(=O)[C@H](CCCN=C(N)N)NC1=O [SIITMTKEAKLPQSWKQIACRLYNTC]
